# Data taken from patent US20220298579A1, “COMPOSITIONS AND METHODS FOR PREDICTING SUSCEPTIBILITY OF CANCERS TO SYNTHETIC-LETHAL THERAPIES” (University of Florida Research Foundation, Inc., priority 2019, published 2022).
# Columns and labels:
# [1] = test system: LCL derived from healthy subjects (EBV-transformed cells); assay: Growth of LCL in the presence of Olaparib (live cell enumeration); format: cell-based, human; settings: Olaparib used alone, added at time 0 and every 3-4 days thereafter; all LCL (3 healthy subjects)
# Source text: (§1) FIGS. 3A-3F show LCL derived from 3 healthy subjects (FIGS. 3A-3C) and 3 EBV^+ BL cell lines (HH514-16, Akata, and Raji; FIGS. 3D-3F) grown in the presence of Olaparib (added at time 0 and every 3-4 days thereafter) and enumerated for live cells on indicated days. FIGS. 3G-3N show LCL (FIGS. 3G-3J) and HH514-16 BL cells (FIGS. 3K-3N) transfected with DR-GFP plasmid (FIGS. 3G, 3H, 3K, 3L) and empty vector pCAGGS (FIGS. 3G, 3K) or ISce1 plasmid (FIGS. 3H, 3L) versus EJ2 plasmid (FIGS. 3I, 3J, 3M, 3N) and pCAGGS (FIGS. 3I, 3M) or ISce1 plasmid (FIGS. 3J, 3N) and harvested after 48 h for analysis of GFP-positive cells by flow cytometry. Numbers in plots indicate percent GFP-positive cells. Experiments were performed 3 times.
# (§2) Newly-infected B cells and previously established EBV-LCL were grown in culture using conditions described (Koganti, S., et al. J Virol 88:516-524 (2014)). For experiments using AG490 and Olaparib, chemicals were added to cultures at time 0. For experiments using Olaparib, the drug was supplemented at the initial concentration every fourth day. For experiments using Bleomycin, the drug was added for an hour, following which cells were washed and placed back in culture.
# [2] = test system: EBV+ BL cell lines (HH514-16, Akata, and Raji); assay: Growth of EBV+ BL cell lines in the presence of Olaparib (live cell enumeration); format: cell-based, human; settings: Olaparib used alone, effect more pronounced than on LCL
# Source text: as §1, §2
# [3] = test system: STAT3 phosphorylation; settings: Janus kinase inhibitor; literature (Koganti 2014; Meydan 1996); cited from earlier work
# [4] = test system: LCL derived from a healthy subject; assay: DR-GFP reporter assay of HR-mediated DSB repair in LCL; format: cell-based, human; settings: increasing concentrations of AG490 (25 μM, 50 μM) added 18 h after DR-GFP + ISce1 transfection, harvested after another 30 h
# Method: (§3) FIGS. 2A to 2O show STAT3 restricts HR repair through Chk1 in oncovirus-transformed cells. FIGS. 2A to 2K show LCL derived from a healthy subject (FIGS. 2A-2E, 2K) and EBV-positive HH514-16 Burkitt lymphoma (BL) cells (FIGS. 2F-2J, 2K) were transfected with DR-GFP plasmid (FIGS. 2A-2D, 2F-2I) and empty vector pCAGGS (FIGS. 2A, 2F) or ISce1 plasmid (FIGS. 2B-2D, 2G-2I), treated with 25 μM (FIGS. 2C, 2H) or 50 μM (FIGS. 2D, 2I) AG490 (a selective STAT3 inhibitor) after 18 h, and harvested after another 30 h for analysis of GFP-positive cells by flow cytometry (FIGS. 2A-2D, 2F-2I) and immunoblotting for phospho(p)STAT3 and β-actin (FIG. 2K). LCL (FIG. 2E) and BL cells (FIG. 2J) were transfected in parallel with pEGFP to monitor transfection efficiency. […]
# (§4) For assessment of cell-cycle distribution, cells were fixed, permeabilized, and stained with anti-EBNA2 antibody and 50 μg/ml propidium iodide supplemented with 1 μg/ml RNase A, as previously described (Hill, E. R. et al. J Virol 87:11438-11446 (2013)). […] Data were acquired using a FACS Calibur and analyzed using FlowJo software. […]
# [5] = test system: EBV-infected B-cell lines; settings: 50 μM AG490; previously demonstrated (Koganti et al. 2014); cited from earlier work
# [6] = test system: EBV-positive HH514-16 Burkitt lymphoma (BL) cells; assay: DR-GFP reporter assay of HR-mediated DSB repair in BL cells; format: cell-based, human; settings: increasing concentrations of AG490 (25 μM, 50 μM) added 18 h after DR-GFP + ISce1 transfection, harvested after another 30 h; HH514-16 BL cells
# Method: as §3, §4
SMILES,reduction in growth [1] [%],sensitivity to PARP inhibition (growth) [2],inhibition of STAT3 phosphorylation [3],percentages of GFP+ cells (HR repair competent) [4],toxicity to EBV-infected B-cell lines [5],percentages of GFP+ cells (HR repair competent) [6]
O=C(c1cc(Cc2n[nH]c(=O)c3ccccc23)ccc1F)N1CCN(C(=O)C2CC2)CC1 [Olaparib],> 50,exquisite sensitivity,–,–,–,–
N#C/C(=C/c1ccc(O)c(O)c1)C(=O)NCc1ccccc1 [AG490],–,–,selectively inhibit STAT3 phosphorylation,increased,minimally toxic,increased
